Results on five compounds are retold here after patent US10604554B2, “Double-acylated GLP-1 derivatives” (Novo Nordisk A/S, priority 2012, dated 2020).

Numbered stars: 1 amine (or outer) side, 2 acyl side, 3 side chain; on linkers, the order of the positions; unused ones are H or OH. Square brackets hold non-standard residues; d marks the D form. Side chains are listed from the residue outwards. Peptide text beside a SMILES is read from it. * marks the point of attachment. Undecanoyl(11-OPh(4-COOH)) = O=C(O)c1ccc(OCCCCCCCCCCC(=O)*)cc1; γGlu = O=C(O)[C@H](CCC(=O)[*:2])N[*:1]; εLys = N[C@@H](CCCCN[*:1])C(=O)[*:2]; Aib = CC(C)(N)C(=O)O

In series [1] the target is T1, human GLP-1 receptor (Homo sapiens, UniProt P43220).
T1 construct: expressed in transfected cells; host or cells: BHK cells, clone FCW467-12A/KZ10-1 (parent line BHKTS13), further transfected with CRE luciferase
The series can be described thus: GLP-1 receptor binding (SPA, displacement of 125I-GLP-1). In short, it runs like this: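 Membranes from a stably transfected hamster cell line, 5-10 ug protein/sample, with WGA SPA beads and [125I]-GLP-1(7-36)NH2 at 0.06 nM final. Incubated 120 min at 30 °C with shaking, then counted.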
Background: Loss of bound radioactivity is the signal in a displacement assay; it reports binding, not function.

For series [2], the target named is T1, human GLP-1 receptor. The series can be described thus: In vitro potency (CRE luciferase; whole cells). In kind it is cell-based. Also on record: EC50/pM (ratio 1% HSA/0% HSA): unit not given here. The settings on record: for EC50: BHK cells; for EC50/pM (ratio 1% HSA/0% HSA): ratio of EC50 at 1% HSA to EC50 at 0% HSA. In short, it runs like this:
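Stably transfected BHK cells carrying human GLP-1R and a CRE–firefly luciferase reporter, 5×10^3 cells/well in assay medium, run with 0% or 1% HSA in assay buffer.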

The nature of series [3]: Pharmacokinetic (PK) study in rat. The settings on record: male, Sprague Dawley, in vivo, iv, 6 nmol/kg.
Series [4] is described as follows: Pharmacokinetic (PK) study in minipig. The settings on record: male, Göttingen, in vivo, iv.
[5] abbreviates: Receptor binding affinity IC50 (high HSA), 2.0% HSA (high albumin).
Setting [6] is: Receptor binding affinity IC50 (low HSA), 0.001% HSA (low albumin).
The mark [7] stands for this setting: In vitro potency (CRE luciferase) EC50 (1% HSA), 1% HSA.
Where [8] appears, read: In vitro potency (CRE luciferase) EC50 (0% HSA), 0% HSA.

T1 sequence (P43220 24-463): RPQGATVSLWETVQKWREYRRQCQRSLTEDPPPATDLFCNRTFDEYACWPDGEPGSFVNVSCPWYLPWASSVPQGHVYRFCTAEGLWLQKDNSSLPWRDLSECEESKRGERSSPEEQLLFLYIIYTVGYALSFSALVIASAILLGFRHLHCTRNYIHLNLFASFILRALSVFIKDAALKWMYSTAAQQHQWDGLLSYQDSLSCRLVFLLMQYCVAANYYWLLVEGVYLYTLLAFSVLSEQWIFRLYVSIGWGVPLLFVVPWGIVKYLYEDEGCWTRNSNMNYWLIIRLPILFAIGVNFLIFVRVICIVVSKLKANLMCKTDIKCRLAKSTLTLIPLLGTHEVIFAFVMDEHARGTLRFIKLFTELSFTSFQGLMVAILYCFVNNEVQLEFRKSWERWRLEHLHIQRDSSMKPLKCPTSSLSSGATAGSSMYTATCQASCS

By IC50 is commonly meant the concentration that gives 50% inhibition. The EC50 is the concentration needed to bring the measured effect to its halfway point. A word on the half-life: it is the time in which the quantity being followed falls by half. Take `CC[C@H](C)[C@H](NC(=O)[C@H](Cc1ccccc1)NC(=O)[C@H](CCC(=O)O)NC(=O)[C@H](CCCCNC(=O)[C@@H](N)CCCCNC(=O)[C@@H](N)CCCCNC(=O)CC[C@H](NC(=O)CCCCCCCCCCCOc1ccc(C(=O)O)cc1)C(=O)O)NC(=O)[C@H](C)NC(=O)[C@H](C)NC(=O)[C@H](CCC(N)=O)NC(=O)CNC(=O)[C@H](CCC(=O)O)NC(=O)[C@H](CC(C)C)NC(=O)[C@H](Cc1ccc(O)cc1)NC(=O)[C@H](CO)NC(=O)[C@H](CO)NC(=O)[C@@H](NC(=O)[C@H](CC(=O)O)NC(=O)[C@H](CO)NC(=O)[C@@H](NC(=O)[C@H](Cc1ccccc1)NC(=O)[C@@H](NC(=O)CNC(=O)[C@H](CCC(=O)O)NC(=O)C(C)(C)NC(=O)[C@@H](N)Cc1c[nH]cn1)[C@@H](C)O)[C@@H](C)O)C(C)C)C(=O)N[C@@H](C)C(=O)N[C@@H](Cc1c[nH]cn1)C(=O)N[C@@H](CC(C)C)C(=O)N[C@H](C(=O)N[C@@H](CCC(N)=O)C(=O)NCC(=O)N[C@@H](CCCNC(=N)N)C(=O)N[C@@H](CCCCNC(=O)[C@@H](N)CCCCNC(=O)[C@@H](N)CCCCNC(=O)CC[C@H](NC(=O)CCCCCCCCCCCOc1ccc(C(=O)O)cc1)C(=O)O)C(=O)O)C(C)C` [Example 4, N^ε26-[(2S)-2-amino-6-[[(2S)-2-amino-6-[[(4S)-4-carboxy-4-[12-(4-carboxyphenoxy)dodecanoylamino]butanoyl]amino]hexanoyl]amino]hexanoyl], N^ε37-[(2S)-2-amino-6-[[(2S)-2-amino-6-[[(4S)-4-carboxy-4-[12-(4-carboxyphenoxy)dodecanoylamino]butanoyl]amino]hexanoyl]amino]hexanoyl]-[Aib^8,His^31,Gln^34,Lys^37]-GLP-1-(7-37)-peptide]: the IC50 in series [1] (setting [5]) was found to be 172 nM; in series [1] (setting [6]), 0.48 nM. Besides, the half-maximal effective concentration (EC50) in series [2] (setting [7]) came to 1.61 nM. Also, in series [2], the “EC50/pM (ratio 1% HSA/0% HSA)” value was 307. The compound also showed a half-life in series [3] of 17 h.
In series [1] (setting [5]), `CC[C@H](C)[C@H](NC(=O)[C@H](Cc1ccccc1)NC(=O)[C@H](CCC(=O)O)NC(=O)[C@H](CCCCNC(=O)[C@@H](N)CCCCNC(=O)CNC(=O)[C@H](CO)NC(=O)[C@H](CO)NC(=O)CNC(=O)[C@H](CO)NC(=O)[C@H](CO)NC(=O)CC[C@H](NC(=O)CCCCCCCCCCCOc1ccc(C(=O)O)cc1)C(=O)O)NC(=O)[C@H](C)NC(=O)[C@H](C)NC(=O)[C@H](CCC(N)=O)NC(=O)CNC(=O)[C@H](CCC(=O)O)NC(=O)[C@H](CC(C)C)NC(=O)[C@H](Cc1ccc(O)cc1)NC(=O)[C@H](CO)NC(=O)[C@H](CO)NC(=O)[C@@H](NC(=O)[C@H](CC(=O)O)NC(=O)[C@H](CO)NC(=O)[C@@H](NC(=O)[C@H](Cc1ccccc1)NC(=O)[C@@H](NC(=O)CNC(=O)[C@H](CCC(=O)O)NC(=O)C(C)(C)NC(=O)[C@@H](N)Cc1c[nH]cn1)[C@@H](C)O)[C@@H](C)O)C(C)C)C(=O)N[C@@H](C)C(=O)N[C@@H](Cc1c[nH]c2ccccc12)C(=O)N[C@@H](CC(C)C)C(=O)N[C@H](C(=O)N[C@@H](CCCNC(=N)N)C(=O)NCC(=O)N[C@@H](CCCNC(=N)N)C(=O)N[C@@H](CCCCNC(=O)[C@@H](N)CCCCNC(=O)CNC(=O)[C@H](CO)NC(=O)[C@H](CO)NC(=O)CNC(=O)[C@H](CO)NC(=O)[C@H](CO)NC(=O)CC[C@H](NC(=O)CCCCCCCCCCCOc1ccc(C(=O)O)cc1)C(=O)O)C(=O)O)C(C)C` [Example 23] showed a half-maximal inhibitory concentration (IC50) of 102 nM. Further, the EC50 in series [2] (setting [7]) is 0.156 nM. Besides, the half-life in series [3] is 19 h.
Take `CC[C@H](C)[C@H](NC(=O)[C@H](Cc1ccccc1)NC(=O)[C@H](CCC(=O)O)NC(=O)[C@H](CCCCNC(=O)[C@@H](N)CCCCNC(=O)[C@@H](N)CCCCNC(=O)CC[C@H](NC(=O)CC[C@H](NC(=O)CC[C@H](NC(=O)CCCCCCCCCCOc1ccc(C(=O)O)cc1)C(=O)O)C(=O)O)C(=O)O)NC(=O)[C@H](C)NC(=O)[C@H](C)NC(=O)[C@H](CCC(N)=O)NC(=O)CNC(=O)[C@H](CCC(=O)O)NC(=O)[C@H](CC(C)C)NC(=O)[C@H](Cc1ccc(O)cc1)NC(=O)[C@H](CO)NC(=O)[C@H](CO)NC(=O)[C@@H](NC(=O)[C@H](CC(=O)O)NC(=O)[C@H](CO)NC(=O)[C@@H](NC(=O)[C@H](Cc1ccccc1)NC(=O)[C@@H](NC(=O)CNC(=O)[C@H](CCC(=O)O)NC(=O)C(C)(C)NC(=O)[C@@H](N)Cc1c[nH]cn1)[C@@H](C)O)[C@@H](C)O)C(C)C)C(=O)N[C@@H](C)C(=O)N[C@@H](Cc1c[nH]c2ccccc12)C(=O)N[C@@H](CC(C)C)C(=O)N[C@H](C(=O)N[C@@H](CCCNC(=N)N)C(=O)NCC(=O)N[C@@H](CCCNC(=N)N)C(=O)N[C@@H](CCCCNC(=O)[C@@H](N)CCCCNC(=O)[C@@H](N)CCCCNC(=O)CC[C@H](NC(=O)CC[C@H](NC(=O)CC[C@H](NC(=O)CCCCCCCCCCOc1ccc(C(=O)O)cc1)C(=O)O)C(=O)O)C(=O)O)C(=O)O)C(C)C` [Example 30]: the IC50 in series [1] (setting [5]) was determined as 203 nM; in series [1] (setting [6]), 0.42 nM. For the same compound, the concentration giving a half-maximal response (EC50) in series [2] (setting [8]) stood at 0.0054 nM; in series [2] (setting [7]) it was 0.093 nM. Further, in series [2], the “EC50/pM (ratio 1% HSA/0% HSA)” value is reported as 17. The half-life in series [3] was 16 h.
For the compound `CC[C@H](C)[C@H](NC(=O)[C@H](Cc1ccccc1)NC(=O)[C@H](CCC(=O)O)NC(=O)[C@H](CCCCNC(=O)[C@@H](N)CCCCNC(=O)[C@@H](N)CCCCNC(=O)CC[C@H](NC(=O)CCCCCCCCCCOc1ccc(C(=O)O)cc1)C(=O)O)NC(=O)[C@H](C)NC(=O)[C@H](C)NC(=O)[C@H](CCC(N)=O)NC(=O)[C@H](CCC(=O)O)NC(=O)[C@H](CCC(=O)O)NC(=O)[C@H](CC(C)C)NC(=O)[C@H](Cc1ccc(O)cc1)NC(=O)[C@H](CO)NC(=O)[C@H](CO)NC(=O)[C@@H](NC(=O)[C@H](CC(=O)O)NC(=O)[C@H](CO)NC(=O)[C@@H](NC(=O)[C@H](Cc1ccccc1)NC(=O)[C@@H](NC(=O)CNC(=O)[C@H](CCC(=O)O)NC(=O)C(C)(C)NC(=O)[C@@H](N)Cc1c[nH]cn1)[C@@H](C)O)[C@@H](C)O)C(C)C)C(=O)N[C@@H](C)C(=O)N[C@@H](Cc1c[nH]c2ccccc12)C(=O)N[C@@H](CC(C)C)C(=O)N[C@H](C(=O)N[C@@H](CCC(N)=O)C(=O)NCC(=O)N[C@@H](CCCNC(=N)N)C(=O)N[C@@H](CCCCNC(=O)[C@@H](N)CCCCNC(=O)[C@@H](N)CCCCNC(=O)CC[C@H](NC(=O)CCCCCCCCCCOc1ccc(C(=O)O)cc1)C(=O)O)C(=O)O)C(C)C` [Example 36, N^ε26-[(2S)-2-amino-6-[[(2S)-2-amino-6-[[(4S)-4-carboxy-4-[11-(4-carboxyphenoxy)undecanoylamino]butanoyl]amino]hexanoyl]amino]hexanoyl], N^ε37-[(2S)-2-amino-6-[[(2S)-2-amino-6-[[(4S)-4-carboxy-4-[11-(4-carboxyphenoxy)undecanoylamino]butanoyl]amino]hexanoyl]amino]hexanoyl]-[Aib^8,Glu^22,Gln^34,Lys^37]-GLP-1-(7-37)-peptide] (H-H[Aib]EGTFTSDVSSYLEEQAAK([εLys-εLys-γGlu-Undecanoyl(11-OPh(4-COOH))])EFIAWLVQGRK([εLys-εLys-γGlu-Undecanoyl(11-OPh(4-COOH))])-OH; N-terminus and C-terminus assumed), the half-inhibitory concentration (IC50) in series [1] (setting [5]) is 25 nM; in series [1] (setting [6]) it was 0.1 nM. For the same compound, the EC50 in series [2] (setting [8]) stood at 0.0049 nM; in series [2] (setting [7]), 0.065 nM. In series [2], the “EC50/pM (ratio 1% HSA/0% HSA)” value was 14. The same compound showed a half-life in series [4] of 69 h.
Take `CC[C@H](C)[C@H](NC(=O)[C@H](Cc1ccccc1)NC(=O)[C@H](CCC(=O)O)NC(=O)[C@H](CCCCNC(=O)[C@@H](N)CCCCNC(=O)CC[C@H](NC(=O)CC[C@H](NC(=O)CCCCCCCCCCOc1ccc(C(=O)O)cc1)C(=O)O)C(=O)O)NC(=O)[C@H](C)NC(=O)[C@H](C)NC(=O)[C@H](CCC(N)=O)NC(=O)[C@H](CCC(=O)O)NC(=O)[C@H](CCC(=O)O)NC(=O)[C@H](CC(C)C)NC(=O)[C@H](Cc1ccc(O)cc1)NC(=O)[C@H](CO)NC(=O)[C@H](CO)NC(=O)[C@@H](NC(=O)[C@H](CC(=O)O)NC(=O)[C@H](CO)NC(=O)[C@@H](NC(=O)[C@H](Cc1ccccc1)NC(=O)[C@@H](NC(=O)CNC(=O)[C@H](CCC(=O)O)NC(=O)C(C)(C)NC(=O)[C@@H](N)Cc1c[nH]cn1)[C@@H](C)O)[C@@H](C)O)C(C)C)C(=O)N[C@@H](CCC(=O)O)C(=O)N[C@@H](Cc1c[nH]c2ccccc12)C(=O)N[C@@H](CC(C)C)C(=O)N[C@H](C(=O)N[C@@H](CCCNC(=N)N)C(=O)NCC(=O)N[C@@H](CCCNC(=N)N)C(=O)N[C@@H](CCCCNC(=O)[C@@H](N)CCCCNC(=O)CC[C@H](NC(=O)CC[C@H](NC(=O)CCCCCCCCCCOc1ccc(C(=O)O)cc1)C(=O)O)C(=O)O)C(=O)N[C@@H](CCC(=O)O)C(=O)O)C(C)C` [Example 42, N^ε26-[(2S)-2-amino-6-[[(4S)-4-carboxy-4-[[(4S)-4-carboxy-4-[11-(4-carboxyphenoxy)undecanoylamino]butanoyl]amino]butanoyl]amino]hexanoyl], N^ε37-[(2S)-2-amino-6-[[(4S)-4-carboxy-4-[[(4S)-4-carboxy-4-[11-(4-carboxyphenoxy)undecanoylamino]butanoyl]amino]butanoyl]amino]hexanoyl]-[Aib^8,Glu^22,Glu^30,Arg^34, Lys^37]-GLP-1-(7-37)-peptidyl-Glu] (H-H[Aib]EGTFTSDVSSYLEEQAAK([εLys-γGlu-γGlu-Undecanoyl(11-OPh(4-COOH))])EFIEWLVRGRK([εLys-γGlu-γGlu-Undecanoyl(11-OPh(4-COOH))])E-OH; N-terminus and C-terminus assumed): the half-maximal inhibitory concentration (IC50) in series [1] (setting [6]) came out at 0.02 nM. Besides, the “EC50/pM (ratio 1% HSA/0% HSA)” value in series [2] is listed as 251.
